# Test results from patent publication US10323013B2, “Inhibitors of the IRE-1/XBP-1 pathway and methods of using thereof” (H. LEE MOFFITT CANCER CENTER AND RESEARCH INSTITUTE, INC., priority 2013, dated 2019).
# “Also recorded” adds a separate entry of the source.
# Tests used:
# primary human CLL cells = assay: Cell proliferation XTT assay, primary human CLL cells; format: cell-based; details: 20 μM, 3 days
# Experimental: (§1) Eμ-TCL1, MEC1, MEC2, WaC3, or primary human CLL cells were grown in 96-well cell culture plates overnight and then treated with fresh phenol red-free culture medium containing STF-083010 (50 μM), A-I06 (50 μM), A-I07 (50 μM) or fludarabine (30 μM). […] Briefly, 50 μl XTT labeling reagent was combined with 100 μl electron-coupling reagent, and the mixture was applied to each well of the 96-well plates. The test was based on cleavage of the yellow tetrazolium salt XTT by mitochondrial dehydrogenases of the metabolic active cells to form the orange formazan compound, which can be spectrophotometrically quantified at 492 nm using a BioTek microplate reader.
# phosphorylation of BTK = assay: BCR activation and phosphorylation assay; format: cell-based; details: wild-type and Eμ-TCL1 B cells, B-I09 20 μM, F(ab′)2 anti-mouse IgM
# Experimental: XBP-1^WT/Eμ-TCL1 B cells, XBP-1^KO/Eμ-TCL1 B cells, B-I09-treated wild-type B cells or B-I09-treated Eμ-TCL1 B cells were suspended in RPMI serum-free media supplemented with 25 mM Hepes, stimulated with F(ab′)^2 fragments of the goat anti-mouse IgM antibody (20 μg/ml) (SouthemBiotech) for 2 min, and lysed immediately by adding ice-cold lysis buffer (50 mM Tris-HCl, pH 8.0; 150 mM NaCl; 1% Triton X-100; 1 mM EDTA) supplemented with protease inhibitor cocktail (Roche), 4 mM sodium pyrophosphate, 2 mM sodium vanadate and 10 mM sodium fluoride. The lysates were analyzed by SDS-PAGE. Phosphorylated proteins of interest were detected by immunoblots using phospho-specific antibodies.
# [1] = Degradation (chemical stability) studies by HPLC/LCMS; format: physicochemical
# Experimental: The degradation of analog 24 was plotted as a function of time upon exposure to FRET-suppression assay buffer at rt. Aliquots were partitioned with MeOH and injected onto LCMS (UV monitored at 320 nm) and peaks integrated relative to internal standard.
# A 20 mM stock solution of B-I09 in DMSO was diluted to 0.5 mM in FRET assay buffer (20 mM HEPES, pH 7.5, 50 mM KOAc, 0.5 mM MgCl2, 3 mM DTT, 0.4% PEG) or cell culture media (RPMI supplemented with 10% fetal bovine serum). The FRET assay buffer and cell culture media solutions were incubated at room temperature and 37° C., respectively. At various time points, a 50 μL aliquot of each solution was added to 50 μL of methanol and the mixture analyzed by analytical reverse-phase HPLC (C18 4 mm×150 mm column, 1 mL/min flow rate) with acetonitrile/water (0.1% formic acid) as eluent. Absorbance was read at 320 nm and the degradation product (aldehyde) was identified by LCMS and co-injection with pure synthetic sample. Degradation studies were carried out in duplicate and data points reported as the mean of two values.
# Eμ-TCL1 CLL cells = assay: Cell proliferation XTT assay, Eμ-TCL1 CLL cells; format: cell-based, mouse; details: 20 μM, 3 days
# Experimental: as §1
# XBP-1s expression = assay: Inhibition of XBP-1s expression in LPS-stimulated mouse B cells (immunoblots); format: cell-based; details: LPS 48 h, then inhibitor 20 μM for 24 h (Example 3 prints 20 mM)
# Experimental: The protein concentrations of the supernatants were determined by BCA assay (Pierce). […] Proteins were transferred to nitrocellulose membranes, blocked in 5% milk (wt/vol in PBS), and immunoblotted with the indicated antibodies and appropriate horseradish peroxidase-conjugated secondary antibodies. Following multiple washes in PBS, the blots were developed using Western Lighting Chemiluminescence Reagent (Perkin-Elmer).
# (§2) Protein concentrations were determined by BCA assays (Pierce). […] Proteins were transferred to nitrocellulose membranes, blocked in 5% non-fat milk (wt/vol in PBS), and immunoblotted with indicated primary antibodies and appropriate horseradish peroxidase-conjugated secondary antibodies. Immunoblots were developed using Western Lighting Chemiluminescence Reagent (Perkin-Elmer).
# [2] = Pharmacokinetics of B-I09 in mouse plasma; format: in vivo; details: 50 mg/kg intraperitoneally
# Experimental: In vivo pharmacokinetics studies were carried out at Agilux Laboratories, Inc. (Worchester, Mass.) using male CD-1 mice (Charles River Laboratories, Wilmington, Mass.). B-I09 was administered intraperitoneally at 50 mg/kg as a solution in DMSO to a group of 3 male CD-1 mice. Compound blood was collected via tail snip into calibrated microvette tubes containing K2EDTA at 0.25, 0.5, 1, 2, 4, 8, and 24 h post dosing. Blood samples were stored on wet ice until processed to plasma by centrifugation within 1 hour of collection. All plasma samples were transferred to 96 well plates and stored at −80° C. until analyzed for B-I09 concentration via LC/MS/MS using a C18 RP-HPLC column (2.1×50 mm) and an acetonitrile:water (with 0.1% formic acid) mobile phase elution gradient. B-I09 was quantified by analysis with API 5500 TurbolonSpray positive ion MS detection. A non-compartmental model was applied to calculate pharmacokinetic parameters using WinNonlin 4.2 software.
# [3] = Aqueous solubility (stated in words); format: physicochemical
# CLL-bearing Eμ-TCL1 mice = format: in vivo
# Experimental: (B) CLL-bearing Eμ-TCL1 mice were intraperitoneally injected with DMSO (n=3) or B-I09 (50 mg/kg in DMSO, n=8) daily for the first 5 days weekly for three weeks. Blood was collected to measure lymphocyte numbers using a HemaTrue Hematology Analyzer (HESKA). Data were compared with lymphocyte counts prior to B-I09 injections, and plotted as mean±SEM. (C) Lymphocyte counts in the peripheral blood of B-I09-treated Eμ-TCL1 mice (n=8) were plotted as mean±SEM. […] (E) Splenocytes from DMSO- or B-I09-injected Eμ-TCL1 mice were stained with IgM-PE-Cy7, B220-FITC, CD5-APC, Annexin V-PE and 7-AAD. Gated IgM+/B220+/CD5+ splenic CLL cells were analyzed for Annexin V- and/or 7-AAD-positive populations. (F) Percentages of apoptotic cells in gated IgM^+/B220^+/CD5^+ CLL populations from spleens of DMSO-injected (n=3) or B-I09-injected (n=8) Eμ-TCL1 mice were plotted as mean±SEM. (G) Weight of DMSO-injected (n=3) or B-I09-injected (n=8) Eμ-TCL1 mice was plotted as mean±SD. (H) Paraffin-embedded sections of indicated organs from Eμ-TCL1 mice receiving three weeks of injections with DMSO or B-I09 were stained with hematoxylin and eosin.
# Tumor-bearing Eμ-TCL1 mice in which CLL cells comprise the majority of the lymphocytes in the peripheral blood (FIG. 33) were selected. The mice were then treated with 50 mg/kg B-I09 on the first five days of each week for three weeks. […] Since CLL cells proliferate in secondary lymphoid organs and are protected from cell death through interactions with microenvironments, whether B-I09 has an effect on CLL cells residing in the spleen was evaluated.
# XBP-1 mRNA splicing = XBP-1 mRNA splicing by RT-PCR; format: cell-based; details: human WaC3 CLL cells, 24 h
# Excerpt: Total RNA was isolated using TRIzol reagent (Invitrogen). Complementary DNA was synthesized from RNA using Superscript II reverse transcriptase (Invitrogen).
# [4] = system: XBP-1s expression in Jeko cells; assay: Inhibition of XBP-1s expression in Jeko cells (immunoblots and densitometry); format: cell-based, human; details: various doses, 24 h
# Experimental: as §2
# [5] = system: XBP-1s expression in Mino cells; assay: Inhibition of XBP-1s expression in Mino cells (immunoblots and densitometry); format: cell-based, human; details: various doses, 24 h
# Experimental: as §2
# Mino and Jeko cells = assay: PARP cleavage by immunoblot in Mino and Jeko cells; details: 50 mM (so in the source), 72 h
# Experimental: Cells were lysed for the analysis of the indicated proteins by immunoblot.
# as §2
# MEC2 = assay: cells; details: Homo sapiens, MEC2, 48 h, read-out: GI50 (50% growth inhibition) concentration
# MEC1 = assay: cells; details: Homo sapiens, MEC1, 48 h, read-out: GI50 (50% growth inhibition) concentration
# WaC3 = assay: cells; details: Homo sapiens, 48 h, read-out: GI50 (50% growth inhibition) concentration
structure (smiles),measurement,setting,value
"O=c1oc2c(C3OCCCO3)c(O)ccc2c2c1CNCC2 [Compound 28, 7-(1,3-dioxan-2-yl)-8-hydroxy-3,4-dihydro-1H-chromeno[3,4-c]pyridin-5(2H)-one]",inhibition of growth of CLL cells from human patients (in words),primary human CLL cells,most potent inhibitor
same,"BCR signaling, phosphorylation of BTK (in words)",phosphorylation of BTK,reduced phosphorylation of BTK
same,fraction intact in cell culture media,"[1]; 37° C., 24 h",greater than 50%
same,half-life at 0.5 mM,"[1]; cell culture media, 37° C., read-out: t1/2 in cell culture media (converted)",~30 h
same,"stability of 1,3-dioxane group in FRET-suppression assay buffer (in words)","[1]; room temperature, up to 48 h, listed as B-I09",remains completely intact; also recorded: stable
same,inhibition of mouse CLL cell growth (in words),Eμ-TCL1 CLL cells,more effective than B-H09 and 4μ8C
same,inhibition of XBP-1s expression (in words),XBP-1s expression,highly effective
same,peak concentration,[2],~39 µM
same,time of peak concentration after administration,[2],15 min
same,half-life,"[2]; male, CD-1, ip",~1.5 h
same,solubility (in words),[3],water soluble
same,apoptotic CD5+ CLL cells in the spleens (in words),CLL-bearing Eμ-TCL1 mice; 50 mg/kg for three weeks vs DMSO,significant increase
same,CLL in the peripheral blood (in words),"CLL-bearing Eμ-TCL1 mice; 50 mg/kg i.p., first five days of each week for three weeks",Clear CLL regression
same,numbers of lymphocytes in the peripheral blood (in words),"CLL-bearing Eμ-TCL1 mice; after three weeks, normal range 500-5000 cells/μL",dropped close to the normal range
same,expression of XBP-1s in CLL cells from peripheral blood (in words),"CLL-bearing Eμ-TCL1 mice; immunoblots, B-I09-injected mice",inhibits the expression of XBP-1s
same,adverse effects or toxicity to mice (in words),CLL-bearing Eμ-TCL1 mice; three weeks of treatment,no apparent adverse effects or toxicity
same,"weight loss and histological changes to vital organs (liver, lungs, kidney, heart)",CLL-bearing Eμ-TCL1 mice; three weeks of treatment,no significant weight loss or apparent histological changes
same,inhibition of splicing of XBP-1 mRNA (in words),XBP-1 mRNA splicing,highly effective
"CC(=O)N1CCc2c(c(=O)oc3c(C=O)c(O)ccc23)C1 [Compound 29, 3-acetyl-8-hydroxy-5-oxo-2,3,4,5-tetrahydro-1H-chromeno[3,4-c]pyridine-7-carbaldehyde]",IC50 for blocking XBP-1s expression (in words),[4],sub-micromolar range
same,IC50 for blocking XBP-1s expression (in words),[5],sub-micromolar range
"CN1CCc2c(c(=O)oc3c(C=O)c(O)ccc23)C1 [Compound 30, 8-hydroxy-3-methyl-5-oxo-2,3,4,5-tetrahydro-1H-chromeno[3,4-c]pyridine-7-carbaldehyde]",PARP cleavage (in words),Mino and Jeko cells,induced PARP cleavage more strongly than either 21b or 5
C=CC(=O)N1CCC[C@@H](n2nc(-c3ccc(Oc4ccccc4)cc3)c3c(N)ncnc32)C1 [ibrutinib],GI50,MEC2,10 to 20 µM
same,GI50,MEC1,10 to 20 µM
same,GI50,WaC3,10 to 20 µM
